From patent EP0801949A1, “Hypoglycemic quinone derivative” (Eisai Co., Ltd., priority 1996, dated 1997)

Tests used:
Type in all cases: in vivo
KK-Ay/Ta mice [1] = experiment: Blood sugar level in type-II diabetes model mice, oral dosing twice daily for 14 days; conditions: for Blood sugar level: male KK-Ay/Ta mice, average ± standard error, N=6
Source text: (§1) Use was made of 22-week old male KK-Ay/Ta mice (type-II diabetes model mice available from Clea Japan Inc.). Restricted feeding was effected such that the animals were starved from 9:00 a.m. to 5:00 p.m. daily through the experimental period.
(§2) (E)-3-[2-(5,6-Dimethoxy-3-methyl-1,4-benzoquinonyl)]-2-nonylpropenoic acid as a representative example of the compounds of the present invention was suspended in 0.5% methylcellulose (MC) and orally administered twice 9:00 a.m. and 5:00 p.m. daily for 14 days in accordance with the following schedule.
(§3) The 0.5% methylcellulose (MC) was administered to a control group in the same manner as above.
(§4) All blood specimens were collected from the cardal veins, and blood sugar and blood insulin levels were measured on the day preceding the administration (day 0) and 3 days (day 3), 7 days (day 7), 10 days (day 10) and 14 days (day 14) after the administration. Hemoglobin AIc (HbAIc) was measured on day 0 and day 14. The measurements of blood sugar level, blood insulin level and HbAIc were conducted by the use of Fuji Dry-Chem System 5500 (manufactured by Fuji Medical Systems Co., Ltd.), insulin measuring kit (EIA sandwich method, manufactured by Morinaga Seikagaku Kenkyusho) and DCA 2000 System (manufactured by Bayer Diagnosics), respectively. The results are expressed by the average ± standard error with respect to each group. The significant difference test as compared with the control group was performed by the Student t-test.

KK-Ay/Ta mice [2] = experiment: Hemoglobin AIc (HbAIc) in type-II diabetes model mice, oral dosing twice daily for 14 days; conditions: 300 mg/Kg/day p.o. for 14 days, KK-Ay/Ta mice (Table 3)
Source text: as §1, §2, §3
as §4, with “The significant difference test as compared with the control group was performed by the Student t-test.” left out

SD rat = experiment: Single administration toxicity test in rat (lethal dose); conditions: observed for 14 days
Source text: (§5) (E)-3-[2-(5,6-Dimethoxy-3-methyl-1,4-benzoquinonyl)]-2-nonylpropenoic acid was used as a test compound.

beagle = experiment: Single administration toxicity test in beagle (lethal dose); conditions: p.o., observed for 21 days
Source text: as §5

SMILES: CCCCCCCCC/C(=C\C1=C(C)C(=O)C(OC)=C(OC)C1=O)C(=O)O [invention compd., (E)-3-[2-(5,6-Dimethoxy-3-methyl-1,4-benzoquinonyl)]-2-nonylpropenoic acid]
- hypoglycemic effect (in words) (KK-Ay/Ta mice [1]; 300 mg/Kg/day p.o. for 14 days, KK-Ay/Ta mice, compared with the control group (Table 2, Fig. 1)): excellent hypoglycemic effect
- Blood sugar level (KK-Ay/Ta mice [1]; Day 0 (day preceding the administration, baseline)): 465.7 ± 21.51 mg/dL
- Blood sugar level (KK-Ay/Ta mice [1]; Day 0 (day preceding the administration, baseline), listed as the compound of the present invention): 465.7 ± 21.51 mg/dL
- Blood sugar level (KK-Ay/Ta mice [1]; Day 3, 300 mg/Kg/day p.o. (100 a.m. + 200 p.m.), 300 mg/kg/day): 380.8 ± 52.42 mg/dL
- Blood sugar level (KK-Ay/Ta mice [1]; Day 3, 300 mg/Kg/day p.o. (100 a.m. + 200 p.m.), listed as the compound of the present invention, 300 mg/kg/day): 380.8 ± 52.42 mg/dL
- Blood sugar level (KK-Ay/Ta mice [1]; Day 7, 300 mg/Kg/day p.o. (100 a.m. + 200 p.m.), 300 mg/kg/day): 319.8 ± 27.49 mg/dL
- Blood sugar level (KK-Ay/Ta mice [1]; Day 7, 300 mg/Kg/day p.o. (100 a.m. + 200 p.m.), listed as the compound of the present invention, 300 mg/kg/day): 319.8 ± 27.49 mg/dL
- Blood sugar level (KK-Ay/Ta mice [1]; Day 10, 300 mg/Kg/day p.o. (100 a.m. + 200 p.m.), 300 mg/kg/day): 334.3 ± 33.75 mg/dL
- Blood sugar level (KK-Ay/Ta mice [1]; Day 10, 300 mg/Kg/day p.o. (100 a.m. + 200 p.m.), listed as the compound of the present invention, 300 mg/kg/day): 334.3 ± 33.75 mg/dL
- Blood sugar level (KK-Ay/Ta mice [1]; Day 14, 300 mg/Kg/day p.o. (100 a.m. + 200 p.m.), 300 mg/kg/day): 280.2 ± 37.31 mg/dL
- Blood sugar level (KK-Ay/Ta mice [1]; Day 14, 300 mg/Kg/day p.o. (100 a.m. + 200 p.m.), listed as the compound of the present invention, 300 mg/kg/day): 280.2 ± 37.31 mg/dL
- HbAIc change as compared with the control group (in words) (KK-Ay/Ta mice [2]): decrease trend
- Lethal dose (SD rat; i.v.): >60 mg/kg
- Lethal dose (SD rat; p.o.): 2000 mg/kg
- Lethal dose (beagle): >400 mg/kg
